Data reported in patent US5866577A, “Aromatic amidine derivatives and salts thereof” (priority 1991, dated 1999).
Where a name gives a salt, the structure may show the parent alone.

Tests used:
[1] = molecular target: T1, thrombin (Bos taurus, UniProt P00735); experiment: Measurement of Thrombin Inhibition Activity; format: biochemical
T1 construct: thrombin (for topical application use, Sankyo Co., Ltd.); purchased Sankyo Co., Ltd
Procedure: Measurement of Thrombin Inhibition Activity
A 100 μl portion of Tris-HCl buffered saline (pH 7.45) (TBS) containing 6 mg/ml of fibrinogen (Type 1, Daiichi Pure Chemicals Co., Ltd.) was mixed with 100 μl of physiological saline solution. At 37° C., 100 μl of Tris-HCl buffered saline (pH 7.45) (TBS) containing varying amounts of thrombin (for topical application use, Sankyo Co., Ltd.) was added to the mixture prepared above to measure clotting time using CLOTEC (Sanko Junyaku Co., Ltd.) and to prepare a calibration curve.

[2] = molecular target: human FXa (Homo sapiens, UniProt P00742); experiment: Measurement of Activated Blood Coagulation Factor X (FXa) Inhibition Activity; format: biochemical; details: substrate S-2222, 37° C., 15 minutes
Procedure: Measurement of Activated Blood Coagulation Factor X (FXa) Inhibition Activity
A 180 μl portion of physiological saline solution containing a compound to be tested was mixed with 200 μl of Tris-HCl buffer (pH 8.4) and 100 μl of 1 mM S-2222 (KabiVitrum AB) aqueous solution, and the mixture was incubated at 37° C. 20 μl of Tris-HCl buffered saline (pH 7.45) containing 0.6 unit/ml of human FXa was added to the mixture. After 15 minutes of incubation at the same temperature, the reaction was stopped by adding 100 μl of 60% acetic acid, and absorbance of the reaction mixture was measured. A reaction mixture with no addition of a test compound was used as a blank, and another reaction mixture in which 60% acetic acid was added prior to the addition of FXa was used as a control.

[3] = tested on: human blood plasma (clotting time); experiment: Measurement of Anticoagulant Activity (plasma clotting time, CT2); format: biochemical; details: concentration which doubles the control clotting time, 37° C.
Procedure: Measurement of Anticoagulant Activity A blood plasma sample was prepared from human blood using a centrifuge. […] Thereafter, clotting time was measured using CLOTEC (Sanko Junyaku Co., Ltd.). A clotting time measured without adding a compound to be tested was used as a control, and a concentration of the test compound which doubles the control clotting time was calculated (hereinafter referred to as "CT2") as an index of the anticoagulant activity.

[4] = tested on: activated partial thromboplastin time (APTT); experiment: Measurement of Anticoagulant Activity in Oral Administration (APTT); format: in vivo, male STD:Wistar rat; details: rat, 100 mg/kg
Procedure: Measurement of Anticoagulant Activity in Oral Administration
An aqueous solution of each compound to be tested was administered orally to each male STD:Wistar rat individual under an anesthetic, at a dose of 10 ml/kg body weight. Blood samples were collected periodically and blood plasma preparations were obtained from the samples to measure activated partial thromboplastin time (APTT). In the same manner, APTT was measured by administering pure water and used as a control. A test/control APTT ratio was calculated and used as an index of the anticoagulant activity.

human FXa, sequence (P00742 235-488 limits assumed): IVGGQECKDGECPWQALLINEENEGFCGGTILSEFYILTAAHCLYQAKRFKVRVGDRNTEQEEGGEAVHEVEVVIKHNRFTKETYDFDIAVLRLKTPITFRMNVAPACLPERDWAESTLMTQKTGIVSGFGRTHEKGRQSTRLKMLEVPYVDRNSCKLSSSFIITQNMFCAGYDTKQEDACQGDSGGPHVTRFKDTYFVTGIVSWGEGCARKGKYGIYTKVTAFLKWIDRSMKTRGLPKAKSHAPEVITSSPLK
human FXa, sequence (P00742 41-179 limits assumed): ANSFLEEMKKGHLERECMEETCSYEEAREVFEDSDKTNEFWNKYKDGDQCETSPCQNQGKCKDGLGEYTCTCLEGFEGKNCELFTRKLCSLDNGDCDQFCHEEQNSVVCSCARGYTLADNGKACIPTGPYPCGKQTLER

| IC50 [1] | IC50 [2] | SMILES | Anti-Coagulation CT2 [3] | Test/Control APTT Ratio ([4]; 0.5 hr) | Test/Control APTT Ratio ([4]; 1 hr) | Test/Control APTT Ratio ([4]; 2 hr) | Test/Control APTT Ratio ([4]; 4 hr) |
| --- | --- | --- | --- | --- | --- | --- | --- |
| – | – | CC(=N)N1CCC[C@H]1COc1ccc(C(Cc2cc3cc(C(=N)N)ccc3s2)C(=O)O)cc1.Cl.Cl (single isomer, unassigned; (+)) [Inventive Example 41] | 0.32 µM | – | – | – | – |
| – | – | Cl.Cl.N=C(N)c1ccc2cc(CC(C(=O)O)c3ccc(O[C@H]4CCNC4)cc3)[nH]c2c1 (single isomer, unassigned; (+)) [Inventive Example 48] | 3 µM | 1.46 | 1.42 | 1.41 | 1.18 |
| – | – | Cl.Cl.N=C(N)c1ccc2sc(CC(CC(=O)O)c3ccc(O[C@H]4CCNC4)cc3)cc2c1 (stereo partly drawn) [Inventive Example 61, 4-(5-amidinobenzo[b]thien-2-yl)-3-[4-[((3S)-3-pyrrolidinyl)oxy]phenyl]butyric Acid Dihydrochloride] | – | 1.40 | 1.28 | 1.21 | 1.09 |
| 190 µM | 0.17 µM | Cl.Cl.N=C(N)c1ccc2[nH]c(CC(C(=O)O)c3ccc(O[C@H]4CCNC4)cc3)cc2c1 (stereo partly drawn) [Inventive Example 68, 3-(5-amidino-2-indolyl)-2-[4-[((3S)-3-pyrrolidinyl)oxy]-phenyl]propionic acid Dihydrochloride] | 1.45 µM | – | – | – | – |
| 370 µM | 0.1 µM | CCCCCC(=N)N1CC[C@H](Oc2ccc(C(Cc3cc4cc(C(=N)N)ccc4s3)C(=O)O)cc2)C1.Cl.Cl (stereo partly drawn) [Inventive Example 94, 3-(5-amidinobenzo[b]thien-2-yl)-2-[4-[((3S)-1-n-hexanimidoyl-3-pyrrolidinyl)oxy]phenyl]propionic Acid Dihydrochloride] | 1.1 µM | – | – | – | – |
| 26 µM | 0.16 µM | Cl.Cl.N=C(N)c1ccc2sc(CC(C(=O)O)c3ccc(O[C@H]4CCN(C(=N)C5CC5)C4)cc3)cc2c1 (stereo partly drawn) [Inventive Example 95, 3-(5-amidinobenzo[b]thien-2-yl)-2-[4-[((3S)-1-cyclopropanecarboximidoyl-3-pyrrolidinyl)oxy]phenyl]propionic Acid Dihydrochloride] | 0.8 µM | – | – | – | – |
| 170 µM | 0.045 µM | CC(=N)N1CCC(Oc2ccc(C(Cc3cc4cc(C(=N)N)ccc4s3)C(=O)O)cc2)CC1.Cl.Cl (centres unmarked) [Inventive Example 97, 2-[4-[(1-acetimidoyl-4-piperidinyl)oxy]phenyl]-3-(5-amidinobenzo[b]thien-2-yl)propionic acid Dihydrochloride] | 0.23 µM | – | – | – | – |
| 100 µM | 0.56 µM | CC(=N)N1CC[C@H](Oc2ccc(CC(C(=O)O)c3cc4cc(C(=N)N)ccc4s3)cc2)C1 (stereo partly drawn) [Inventive Example 106, 3-[4-[((3S)-1-acetimidoyl-3-pyrrolidinyl)oxy]phenyl]-2-(5-amidinobenzo[b]thien-2-ylpropionic Acid Dihydrochloride] | 2.3 µM | – | – | – | – |

| SMILES | IC50 [1] | IC50 [2] | Anti-Coagulation CT2 [3] | Test/Control APTT Ratio ([4]; 0.5 hr) | Test/Control APTT Ratio ([4]; 1 hr) | Test/Control APTT Ratio ([4]; 2 hr) | Test/Control APTT Ratio ([4]; 4 hr) |
| --- | --- | --- | --- | --- | --- | --- | --- |
| CC(=N)N1CCC[C@H]1COc1ccc(C(Cc2cc3cc(C(=N)N)ccc3s2)C(=O)O)cc1.Cl.Cl (single isomer, unassigned; (+)) [Inventive Example 41, Dihydrochloride] | 9 µM | 0.032 µM | – | – | – | – | – |
| CC(=N)N1CCC(Oc2ccc(C(Cc3ccc4ccc(C(=N)N)cc4c3)C(=O)O)cc2)CC1.Cl.Cl (single isomer, unassigned; (+)) [Inventive Example 43, (+)-2-[4-[(1-acetimidoyl-4-piperidinyl)oxy]phenyl]-3-(7-amidino-2-naphthyl)propionic Acid Dihydrochloride] | > 400 µM | 0.013 µM | 0.18 µM | – | – | – | – |
| Cl.Cl.N=C(N)c1ccc2cc(CC(C(=O)O)c3ccc(O[C@H]4CCNC4)cc3)[nH]c2c1 (single isomer, unassigned; (+)) [Inventive Example 48, Dihydrochloride] | 50 µM | 0.36 µM | – | – | – | – | – |
